Molecules are shown by their SMILES.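 96-well plates; 48 h exposure; 5 concentrations. Endpoints by linear interpolation between flanking doses. Not reached: highest tested concentration assigned. The concentration for full growth arrest is given as TGI.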 Some results are limits rather than exact numbers.

One assay concerns UACC-62 melanoma. Put plainly: NCI anticancer screen, dose series, 48 h.
The compound `CCOC(=O)c1ccc(C(=O)OCC)n1-c1cc2cc(c1)CSCc1cc(cc(-n3c(C(=O)OCC)ccc3C(=O)OCC)c1)CSC2` registered a TGI greater than 10 µM.

Consider `CCOC(=O)NC(C(F)(F)F)(C(F)(F)F)P(=O)(OC(C)C)OC(C)C`, for which the TGI was greater than 100 µM.

The subject of another assay is 786-0 renal. Briefly: NCI anticancer screen, dose series, 48 h.
`O=c1c2cc(S(=O)(=O)Nc3ccccc3Cl)ccc2ncn1NS(=O)(=O)c1ccc(Br)cc1` returned a TGI greater than 37.5 µM.

`Nc1ccn(C2CC(O)C(COP(O)(=S)OC3CC(n4ccc(N)nc4=O)OC3CO)O2)c(=O)n1` (stereo not drawn) returned a TGI greater than 100 µM.

In turn, `COc1ccccc1C1CC(=O)CC(c2ccccc2OC)C12C(=O)NC(=S)NC2=O` (stereo not drawn) displayed a TGI greater than 100 µM.

`Cc1nc2sc(CCl)nn2c(=O)c1Cl`: the TGI came out at 22.4 µM.

Compound `CCOC(=O)c1ccc(C(=O)OCC)n1-c1cc2cc(c1)CSCc1cc(cc(-n3c(C(=O)OCC)ccc3C(=O)OCC)c1)CSC2` displayed a TGI greater than 10 µM.

`CCOC(=O)NC(C(F)(F)F)(C(F)(F)F)P(=O)(OC(C)C)OC(C)C` gave a TGI greater than 100 µM.

The test system of the next assay is CCRF-CEM leukemia. Put plainly: NCI anticancer screen, dose series, 48 h.
`O=c1c2cc(S(=O)(=O)Nc3ccccc3Cl)ccc2ncn1NS(=O)(=O)c1ccc(Br)cc1` registered a TGI greater than 37.5 µM.

`Nc1ccn(C2CC(O)C(COP(O)(=S)OC3CC(n4ccc(N)nc4=O)OC3CO)O2)c(=O)n1` (stereo not drawn) displayed a TGI greater than 100 µM.

As for `COc1ccccc1C1CC(=O)CC(c2ccccc2OC)C12C(=O)NC(=S)NC2=O` (stereo not drawn), the TGI was greater than 100 µM.

`Cc1nc2sc(CCl)nn2c(=O)c1Cl` had a TGI of 24.9 µM.

`CCOC(=O)c1ccc(C(=O)OCC)n1-c1cc2cc(c1)CSCc1cc(cc(-n3c(C(=O)OCC)ccc3C(=O)OCC)c1)CSC2` showed a TGI greater than 10 µM.

In the case of `CCOC(=O)NC(C(F)(F)F)(C(F)(F)F)P(=O)(OC(C)C)OC(C)C`, the TGI was greater than 100 µM.

Another assay concerns SK-OV-3 ovarian. Briefly: NCI anticancer screen, dose series, 48 h.
`O=c1c2cc(S(=O)(=O)Nc3ccccc3Cl)ccc2ncn1NS(=O)(=O)c1ccc(Br)cc1` displayed a TGI greater than 37.5 µM.

`Cc1nc2sc(CCl)nn2c(=O)c1Cl` displayed a TGI of 28.1 µM.

The compound `CCOC(=O)c1ccc(C(=O)OCC)n1-c1cc2cc(c1)CSCc1cc(cc(-n3c(C(=O)OCC)ccc3C(=O)OCC)c1)CSC2` gave a TGI greater than 10 µM.

As for `CCOC(=O)NC(C(F)(F)F)(C(F)(F)F)P(=O)(OC(C)C)OC(C)C`, the TGI was greater than 100 µM.

Another assay concerns M14 melanoma. Put plainly: NCI anticancer screen, dose series, 48 h.
Turning to `O=c1c2cc(S(=O)(=O)Nc3ccccc3Cl)ccc2ncn1NS(=O)(=O)c1ccc(Br)cc1`, the TGI was greater than 37.5 µM.

With `Nc1ccn(C2CC(O)C(COP(O)(=S)OC3CC(n4ccc(N)nc4=O)OC3CO)O2)c(=O)n1` (stereo not drawn), the TGI is greater than 100 µM.

In turn, `COc1ccccc1C1CC(=O)CC(c2ccccc2OC)C12C(=O)NC(=S)NC2=O` (stereo not drawn) returned a TGI greater than 100 µM.

As for `Cc1nc2sc(CCl)nn2c(=O)c1Cl`, the TGI was 26.9 µM.

Compound `CCOC(=O)c1ccc(C(=O)OCC)n1-c1cc2cc(c1)CSCc1cc(cc(-n3c(C(=O)OCC)ccc3C(=O)OCC)c1)CSC2` returned a TGI greater than 10 µM.

In a further assay the test system is UACC-257 melanoma. Put plainly: NCI anticancer screen, dose series, 48 h.
With `O=c1c2cc(S(=O)(=O)Nc3ccccc3Cl)ccc2ncn1NS(=O)(=O)c1ccc(Br)cc1`, the TGI was greater than 37.5 µM.

Compound `Nc1ccn(C2CC(O)C(COP(O)(=S)OC3CC(n4ccc(N)nc4=O)OC3CO)O2)c(=O)n1` (stereo not drawn) showed a TGI greater than 100 µM.

`COc1ccccc1C1CC(=O)CC(c2ccccc2OC)C12C(=O)NC(=S)NC2=O` (stereo not drawn) had a TGI greater than 100 µM.

As to `Cc1nc2sc(CCl)nn2c(=O)c1Cl`, the TGI is 29.7 µM.

`CCOC(=O)c1ccc(C(=O)OCC)n1-c1cc2cc(c1)CSCc1cc(cc(-n3c(C(=O)OCC)ccc3C(=O)OCC)c1)CSC2`: the TGI was greater than 10 µM.

In the case of `CCOC(=O)NC(C(F)(F)F)(C(F)(F)F)P(=O)(OC(C)C)OC(C)C`, the TGI is greater than 100 µM.

The next assay deals with OVCAR-4 ovarian. Put plainly: NCI anticancer screen, dose series, 48 h.
In the case of `O=c1c2cc(S(=O)(=O)Nc3ccccc3Cl)ccc2ncn1NS(=O)(=O)c1ccc(Br)cc1`, the TGI was greater than 37.5 µM.

Consider `Nc1ccn(C2CC(O)C(COP(O)(=S)OC3CC(n4ccc(N)nc4=O)OC3CO)O2)c(=O)n1` (stereo not drawn), for which the TGI was greater than 100 µM.

`COc1ccccc1C1CC(=O)CC(c2ccccc2OC)C12C(=O)NC(=S)NC2=O` (stereo not drawn) returned a TGI greater than 100 µM.

In the case of `Cc1nc2sc(CCl)nn2c(=O)c1Cl`, the TGI was determined as 29.7 µM.

Take `CCOC(=O)c1ccc(C(=O)OCC)n1-c1cc2cc(c1)CSCc1cc(cc(-n3c(C(=O)OCC)ccc3C(=O)OCC)c1)CSC2`: the TGI is greater than 10 µM.

As to `CCOC(=O)NC(C(F)(F)F)(C(F)(F)F)P(=O)(OC(C)C)OC(C)C`, the TGI was greater than 100 µM.

The subject of another assay is BT-549 breast. Put plainly: NCI anticancer screen, dose series, 48 h.
Turning to `O=c1c2cc(S(=O)(=O)Nc3ccccc3Cl)ccc2ncn1NS(=O)(=O)c1ccc(Br)cc1`, the TGI was greater than 37.5 µM.

Turning to `Nc1ccn(C2CC(O)C(COP(O)(=S)OC3CC(n4ccc(N)nc4=O)OC3CO)O2)c(=O)n1` (stereo not drawn), the TGI is greater than 100 µM.

As to `COc1ccccc1C1CC(=O)CC(c2ccccc2OC)C12C(=O)NC(=S)NC2=O` (stereo not drawn), the TGI was greater than 100 µM.

For `Cc1nc2sc(CCl)nn2c(=O)c1Cl`, the TGI stood at 15.6 µM.

Regarding `CCOC(=O)c1ccc(C(=O)OCC)n1-c1cc2cc(c1)CSCc1cc(cc(-n3c(C(=O)OCC)ccc3C(=O)OCC)c1)CSC2`, the TGI is greater than 10 µM.

`CCOC(=O)NC(C(F)(F)F)(C(F)(F)F)P(=O)(OC(C)C)OC(C)C`: the TGI was greater than 100 µM.

In the next assay the test system is NCI-H23 lung. Put plainly: NCI anticancer screen, dose series, 48 h.
In turn, `O=c1c2cc(S(=O)(=O)Nc3ccccc3Cl)ccc2ncn1NS(=O)(=O)c1ccc(Br)cc1` yielded a TGI greater than 37.5 µM.

The compound `Nc1ccn(C2CC(O)C(COP(O)(=S)OC3CC(n4ccc(N)nc4=O)OC3CO)O2)c(=O)n1` (stereo not drawn) registered a TGI greater than 100 µM.

`COc1ccccc1C1CC(=O)CC(c2ccccc2OC)C12C(=O)NC(=S)NC2=O` (stereo not drawn) gave a TGI greater than 100 µM.

`Cc1nc2sc(CCl)nn2c(=O)c1Cl` gave a TGI of 33.3 µM.

In the case of `CCOC(=O)c1ccc(C(=O)OCC)n1-c1cc2cc(c1)CSCc1cc(cc(-n3c(C(=O)OCC)ccc3C(=O)OCC)c1)CSC2`, the TGI is greater than 10 µM.

`CCOC(=O)NC(C(F)(F)F)(C(F)(F)F)P(=O)(OC(C)C)OC(C)C` yielded a TGI greater than 100 µM.

In a further assay the test system is SK-MEL-28 melanoma. Put plainly: NCI anticancer screen, dose series, 48 h.
As to `O=c1c2cc(S(=O)(=O)Nc3ccccc3Cl)ccc2ncn1NS(=O)(=O)c1ccc(Br)cc1`, the TGI was greater than 37.5 µM.

As for `Nc1ccn(C2CC(O)C(COP(O)(=S)OC3CC(n4ccc(N)nc4=O)OC3CO)O2)c(=O)n1` (stereo not drawn), the TGI was greater than 100 µM.

As to `COc1ccccc1C1CC(=O)CC(c2ccccc2OC)C12C(=O)NC(=S)NC2=O` (stereo not drawn), the TGI stood at 95.6 µM.

As for `Cc1nc2sc(CCl)nn2c(=O)c1Cl`, the TGI turned out to be 27.3 µM.

Consider `CCOC(=O)c1ccc(C(=O)OCC)n1-c1cc2cc(c1)CSCc1cc(cc(-n3c(C(=O)OCC)ccc3C(=O)OCC)c1)CSC2`, for which the TGI is greater than 10 µM.

On to `CCOC(=O)NC(C(F)(F)F)(C(F)(F)F)P(=O)(OC(C)C)OC(C)C`, for which the TGI was greater than 100 µM.

These data come from PubChem BioAssay (NCI).
